# Patent publication US20190119200A1, “TERTIARY AMIDES AND METHOD OF USE” (AbbVie Inc., priority 2016, published 2019)
# Key:
# LPAR1 = biological target: T1, LPAR1 (Homo sapiens, UniProt Q92633); test: LPAR1 Arrestin Assay (arrestin reporter assay); format: cell-based; conditions: U2OS cells stably expressing the LPAR1 receptor, 200 nM 18:1 LPA (EC80); for Emax: read-out: Maximum Inhibition
# T1 construct: host or cells: U2OS
# Description: One day prior to the experiment, frozen U2OS cells stably expressing the LPAR1 receptor (Life Technologies, Grand Island, N.Y., #K1519A) were thawed, centrifuged at 1,000 rpm for 5 minutes to remove DMSO, and resuspended in FreeStyle™ media (Gibco, Grand Island, N.Y.). Forty microliters of cells were plated into PDL-coated 384-well plates (Greiner Bio-One, Monroe, N.C.) at 10,000 cells/well, and then the plates were incubated overnight in humidified 5% CO2 at 37° C. Test compounds were dissolved in DMSO, and 12-point, 1:3 dilution CRCs were prepared in duplicate; daughter plates were prepared by aliquoting 0.8 μL/well of test compound dilutions into 384-well plates. On the day of the assay, the daughter plates were diluted to 6× stocks using HEPES-buffered HBSS, then 10 μL of 6× test compounds were added to the cells, and the plates were incubated at 37° C. for one hour. After this 1 hour incubation, 10 μL of a 6× stock of the LPAR1 agonist, 18:1 LPA (Avanti Polar Lipids, Alabaster, Ala.), was prepared in HEPES-buffered HBSS+0.1% fatty acid-free BSA (Sigma, St. Louis, Mo.). The 6×LPA was added to all wells for a final concentration of 200 nM, which corresponds to the 18:1 LPA EC80 in this arrestin assay. The final DMSO concentration in the assay plate was 0.1%, and the final BSA concentration was 0.02%. After addition of LPA to all wells, the assay plates were incubated in humidified 5% CO2 at 37° C. for five hours. During the incubation period, 6× dye from the LiveBLAzer™-FRET B/G with CCF4-AM kit (Life Technologies, Grand Island, N.Y.) was prepared according to manufacturers' instructions. At the end of the 5 hour compound incubation, 10 μL of 6× dye was added to each well, and the assay plate was incubated for two hours in the dark at room temperature. Throughout the assay procedure, all volume additions were performed with a Biomek® NX liquid handler (Beckman Coulter, Indianapolis, Ind.). After the 2 hour dye-load, fluorescence was measured on an EnVision® Multilabel Plate Reader (Perkin Elmer, Waltham, Mass.) with an excitation filter at 409/20 nm and emission filters at 460/40 nm and 530/30 nm. Data processing was performed as recommended by the LiveBLAzer™-FRET B/G with CCF4-AM kit manual; all test compound CRCs were performed in duplicate with n≥3.
# [1] = tested on: LPA-induced MCP-1 in NRK-49F cells; test: LPA-induced MCP-1 AlphaLISA assay; format: cell-based; conditions: Rattus norvegicus, final LPA 10 μM, 7 hours; for Emax: read-out: Maximum Inhibition
# In short: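 NRK-49F rat fibroblasts, serum-starved overnight, pretreated with compound for 30 min at 37 °C (1% DMSO final), then stimulated with 10 μM LPA final. MCP-1 in the supernatant was measured by mouse/rat CCL2 AlphaLISA. IC50 values came from four-parameter logistic fits of the ratio data.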
# T1 sequence (Q92633 whole entry): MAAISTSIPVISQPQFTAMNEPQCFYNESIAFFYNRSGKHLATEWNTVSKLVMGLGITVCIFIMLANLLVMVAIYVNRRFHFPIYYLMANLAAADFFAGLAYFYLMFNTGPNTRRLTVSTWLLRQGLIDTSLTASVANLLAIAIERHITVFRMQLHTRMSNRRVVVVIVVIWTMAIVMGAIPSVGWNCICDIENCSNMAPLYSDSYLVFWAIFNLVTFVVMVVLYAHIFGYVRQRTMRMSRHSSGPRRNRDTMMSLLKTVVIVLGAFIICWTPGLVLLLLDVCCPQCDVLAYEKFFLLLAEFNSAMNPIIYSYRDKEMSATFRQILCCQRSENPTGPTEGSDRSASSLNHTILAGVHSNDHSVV
Structure (SMILES),IC50 (LPAR1),Emax (LPAR1),IC50 [1],Emax [1]
"COc1cc(OC)cc(C(=O)N(CCCCC(=O)O)CCCc2ccccc2)c1 [Example 7, 5-[(3,5-dimethoxybenzoyl)(3-phenylpropyl)amino]pentanoic Acid]",713 nM,108%,2630 nM,71%
"COc1cc(C(=O)N(CCCCC(=O)O)CCCc2ccccc2)cc(OC)c1C(F)(F)F [Example 37, 5-{[3,5-dimethoxy-4-(trifluoromethyl)benzoyl](3-phenylpropyl)amino}pentanoic Acid]",231 nM,122%,479 nM,81%
"COc1cc(C(=O)N(CCCc2ccccc2)CCOCC(=O)NS(C)(=O)=O)cc(OC)c1C [Example 157, N-(2-{2-[(methanesulfonyl)amino]-2-oxoethoxy}ethyl)-3,5-dimethoxy-4-methyl-N-(3-phenylpropyl)benzamide]",108 nM,128%,460 nM,77%
"COc1cc(C(=O)N(CCCc2ccccc2)CCSCC(=O)O)cc(OC)c1C [Example 44, ({2-[(3,5-dimethoxy-4-methylbenzoyl)(3-phenylpropyl)amino]ethyl}sulfanyl)acetic Acid]",69 nM,114%,410 nM,91%
"COc1cc(C(=O)N(CCCCC(=O)O)CCCc2ccccc2F)cc(OC)c1C [Example 32, 5-{(3,5-dimethoxy-4-methylbenzoyl)[3-(2-fluorophenyl)propyl]amino}pentanoic Acid]",76 nM,112%,473 nM,89%
"COc1cc(C(=O)N(CCCc2ccccc2)CCCC(C)(O)C(=O)O)cc(OC)c1C (centres unmarked) [Example 155, 5-[(3,5-dimethoxy-4-methylbenzoyl)(3-phenylpropyl)amino]-2-hydroxy-2-methylpentanoic Acid]",401 nM,125%,763 nM,81%
"COc1cc(C(=O)N(CCCCC(=O)O)CCCc2ccc(F)cc2)cc(OC)c1C [Example 34, 5-{(3,5-dimethoxy-4-methylbenzoyl)[3-(4-fluorophenyl)propyl]amino}pentanoic Acid]",391 nM,115%,786 nM,77%
"COc1cc(OC)cc(C(=O)N(CCCCC(=O)O)CCCc2cccc(Cl)c2)c1 [Example 91, 5-{[3-(3-chlorophenyl)propyl](3,5-dimethoxybenzoyl)amino}pentanoic Acid]",293 nM,120%,2090 nM,84%
"COc1cc(C(=O)N(CCCc2ccccc2)CCC[C@@H](C)C(=O)O)cc(OC)c1C (single isomer, unassigned) [Example 77]",5 nM,102%,60 nM,92%
"COc1ccc(C2(C(=O)N(CCCc3ccccc3)CCSCC(=O)O)CC2)cc1 [Example 115, [(2-{[1-(4-methoxyphenyl)cyclopropane-1-carbonyl](3-phenylpropyl)amino}ethyl)sulfanyl]acetic Acid]",1080 nM,104%,3540 nM,67%
"COc1cc(C(=O)N(CCCc2ccccc2F)CCSCC(=O)O)cc(OC)c1C [Example 116, [(2-{(3,5-dimethoxy-4-methylbenzoyl)[3-(2-fluorophenyl)propyl]amino}ethyl)sulfanyl]acetic Acid]",281 nM,108%,173 nM,85%
